Common to all, as to type: biochemical
One assay has as its target T1, ITK (Homo sapiens, UniProt Q08881).
T1 sequence (Q08881 1-620): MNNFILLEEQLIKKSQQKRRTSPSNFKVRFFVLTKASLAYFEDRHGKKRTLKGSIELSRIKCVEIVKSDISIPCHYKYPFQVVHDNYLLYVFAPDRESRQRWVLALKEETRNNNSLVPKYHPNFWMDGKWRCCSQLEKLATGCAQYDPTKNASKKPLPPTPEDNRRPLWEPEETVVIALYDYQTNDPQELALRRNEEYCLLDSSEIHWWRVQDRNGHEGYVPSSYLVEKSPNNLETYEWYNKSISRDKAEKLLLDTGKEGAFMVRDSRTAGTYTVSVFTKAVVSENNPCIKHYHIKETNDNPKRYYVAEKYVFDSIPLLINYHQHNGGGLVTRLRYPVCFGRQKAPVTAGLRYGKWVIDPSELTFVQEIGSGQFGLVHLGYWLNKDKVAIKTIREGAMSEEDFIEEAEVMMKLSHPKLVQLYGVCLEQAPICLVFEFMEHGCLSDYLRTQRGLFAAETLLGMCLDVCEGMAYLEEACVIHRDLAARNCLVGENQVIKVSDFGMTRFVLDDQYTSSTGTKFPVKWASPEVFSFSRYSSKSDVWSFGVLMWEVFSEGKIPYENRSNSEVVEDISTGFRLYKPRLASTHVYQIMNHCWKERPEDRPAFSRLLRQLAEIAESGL
Kind of assay: Inhibition of a panel of kinases, in vitro HotSpot kinase assay: ITK. To be noted: Table 15, C compounds; 1 μM ATP. On the procedure:
(§1) The degree of inhibition of a panel of kinases is determined using the in vitro HotSpot kinase assay (purified enzymes, ^33P-ATP, an appropriate substrate and 1 μM ATP).

Another assay deals with T2, TEC (Homo sapiens, UniProt P42680).
T2 sequence (P42680 1-631): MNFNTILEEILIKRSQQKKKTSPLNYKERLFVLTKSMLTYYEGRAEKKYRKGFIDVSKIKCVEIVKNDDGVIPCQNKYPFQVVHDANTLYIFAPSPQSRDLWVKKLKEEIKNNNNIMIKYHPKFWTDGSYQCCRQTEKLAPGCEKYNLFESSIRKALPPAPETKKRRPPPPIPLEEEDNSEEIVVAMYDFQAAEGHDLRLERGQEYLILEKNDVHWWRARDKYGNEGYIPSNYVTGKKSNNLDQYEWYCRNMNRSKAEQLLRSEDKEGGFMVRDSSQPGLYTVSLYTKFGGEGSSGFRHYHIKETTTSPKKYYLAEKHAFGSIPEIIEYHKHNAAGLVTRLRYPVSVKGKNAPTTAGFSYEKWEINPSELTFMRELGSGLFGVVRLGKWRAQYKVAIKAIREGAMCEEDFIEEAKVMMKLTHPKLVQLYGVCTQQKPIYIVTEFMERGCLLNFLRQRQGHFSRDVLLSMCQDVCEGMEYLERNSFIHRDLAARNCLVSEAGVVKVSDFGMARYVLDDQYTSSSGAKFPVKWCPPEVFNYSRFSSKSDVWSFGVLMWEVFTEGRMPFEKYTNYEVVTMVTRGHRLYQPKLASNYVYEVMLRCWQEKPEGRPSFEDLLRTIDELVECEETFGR
As to the kind of experiment: Inhibition of a panel of kinases, in vitro HotSpot kinase assay: TEC. To be noted: Table 15, C compounds; 1 μM ATP. On the procedure:
as §1

The target in a further assay is T3, TXK (Homo sapiens, UniProt P42681).
T3 sequence (P42681 1-527): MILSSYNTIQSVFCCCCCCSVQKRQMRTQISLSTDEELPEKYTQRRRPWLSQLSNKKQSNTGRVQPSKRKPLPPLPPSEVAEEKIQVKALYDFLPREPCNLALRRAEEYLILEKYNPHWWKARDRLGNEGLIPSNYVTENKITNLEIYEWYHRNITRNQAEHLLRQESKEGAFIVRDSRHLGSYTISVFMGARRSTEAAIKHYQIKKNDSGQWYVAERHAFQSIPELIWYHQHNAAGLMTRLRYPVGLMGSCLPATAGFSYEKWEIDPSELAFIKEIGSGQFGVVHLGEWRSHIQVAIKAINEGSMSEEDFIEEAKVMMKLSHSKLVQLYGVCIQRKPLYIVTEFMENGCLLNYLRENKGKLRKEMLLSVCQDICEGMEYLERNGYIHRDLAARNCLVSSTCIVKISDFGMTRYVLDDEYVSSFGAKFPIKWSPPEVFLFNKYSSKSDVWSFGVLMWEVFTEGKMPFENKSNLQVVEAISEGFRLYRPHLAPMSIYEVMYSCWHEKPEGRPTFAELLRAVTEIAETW
As to the kind of experiment: Inhibition of a panel of kinases, in vitro HotSpot kinase assay: TXK. To be noted: Table 15, C compounds; 1 μM ATP. As to the method: as §1

The target of the next assay is EGFR (Homo sapiens, UniProt P00533). As to the kind of experiment: Inhibition of a panel of kinases, in vitro HotSpot kinase assay: EGFR. To be noted: Table 15, C compounds; 1 μM ATP. On the procedure:
as §1

For another assay, the target named is T4, BTK-WT (Homo sapiens, UniProt Q06187).
T4 construct: purified from insect cells as a full-length construct containing an N-terminal 6X-His tag; His6 (N); made in house; host or cells: insect cells (baculovirus Sf21 in Method B)
T4 sequence (Q06187 whole entry): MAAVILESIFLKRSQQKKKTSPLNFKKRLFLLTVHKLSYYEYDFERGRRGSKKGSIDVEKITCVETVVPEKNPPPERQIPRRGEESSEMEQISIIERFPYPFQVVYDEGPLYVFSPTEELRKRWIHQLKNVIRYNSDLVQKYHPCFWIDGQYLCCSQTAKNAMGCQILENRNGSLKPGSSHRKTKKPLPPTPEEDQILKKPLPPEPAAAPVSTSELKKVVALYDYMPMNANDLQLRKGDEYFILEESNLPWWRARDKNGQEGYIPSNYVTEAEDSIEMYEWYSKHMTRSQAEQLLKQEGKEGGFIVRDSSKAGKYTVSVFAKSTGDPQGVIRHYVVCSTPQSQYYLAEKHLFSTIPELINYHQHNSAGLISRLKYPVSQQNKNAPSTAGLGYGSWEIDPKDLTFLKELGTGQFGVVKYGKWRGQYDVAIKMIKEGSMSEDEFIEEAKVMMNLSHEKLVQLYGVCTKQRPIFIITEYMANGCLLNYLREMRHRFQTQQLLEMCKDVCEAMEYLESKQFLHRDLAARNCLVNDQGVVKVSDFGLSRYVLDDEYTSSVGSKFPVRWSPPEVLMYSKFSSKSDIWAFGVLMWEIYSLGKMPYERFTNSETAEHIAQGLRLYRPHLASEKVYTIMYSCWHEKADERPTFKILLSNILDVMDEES
Kind of assay: Btk in vitro inhibitory activity (one of Method A TR-FRET, Method B electrophoretic mobility shift, Method C radiometric filter binding). To be noted: Table 15, C compounds; read-out: IC50 BTK-WT. Background: In EMSA bound probe runs differently from free probe, usually more slowly.

Where only a bound is given, the exact number is not on record here.

Chain of EGFR (P00533 25-1210): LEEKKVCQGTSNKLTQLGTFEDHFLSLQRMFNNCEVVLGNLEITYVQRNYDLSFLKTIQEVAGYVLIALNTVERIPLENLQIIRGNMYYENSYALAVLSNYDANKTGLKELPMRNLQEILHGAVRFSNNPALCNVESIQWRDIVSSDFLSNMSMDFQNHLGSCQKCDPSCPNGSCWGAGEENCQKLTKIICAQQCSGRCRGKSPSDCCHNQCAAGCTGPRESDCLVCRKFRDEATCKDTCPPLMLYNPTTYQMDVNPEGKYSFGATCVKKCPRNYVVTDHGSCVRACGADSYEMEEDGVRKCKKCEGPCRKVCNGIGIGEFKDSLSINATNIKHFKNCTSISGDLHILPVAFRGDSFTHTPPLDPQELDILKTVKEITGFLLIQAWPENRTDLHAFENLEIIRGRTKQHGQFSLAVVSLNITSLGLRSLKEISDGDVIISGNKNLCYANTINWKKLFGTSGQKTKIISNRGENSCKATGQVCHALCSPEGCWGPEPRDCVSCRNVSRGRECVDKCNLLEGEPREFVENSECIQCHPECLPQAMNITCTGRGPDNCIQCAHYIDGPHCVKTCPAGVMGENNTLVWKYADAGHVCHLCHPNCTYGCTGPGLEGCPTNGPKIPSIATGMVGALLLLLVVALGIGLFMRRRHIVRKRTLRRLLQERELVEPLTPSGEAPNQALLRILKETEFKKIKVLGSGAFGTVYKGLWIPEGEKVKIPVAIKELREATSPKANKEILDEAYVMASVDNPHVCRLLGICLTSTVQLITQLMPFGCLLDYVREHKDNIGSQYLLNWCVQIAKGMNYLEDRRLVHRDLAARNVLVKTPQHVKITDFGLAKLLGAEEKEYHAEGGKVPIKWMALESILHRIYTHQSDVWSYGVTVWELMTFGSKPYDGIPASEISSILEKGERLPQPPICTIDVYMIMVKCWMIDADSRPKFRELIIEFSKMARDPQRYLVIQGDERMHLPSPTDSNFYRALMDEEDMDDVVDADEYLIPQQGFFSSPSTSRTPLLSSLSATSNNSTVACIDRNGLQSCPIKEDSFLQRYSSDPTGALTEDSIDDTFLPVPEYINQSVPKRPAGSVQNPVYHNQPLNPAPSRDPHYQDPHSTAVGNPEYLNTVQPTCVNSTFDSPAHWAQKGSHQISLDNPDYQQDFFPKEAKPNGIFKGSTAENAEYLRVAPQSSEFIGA

Take `C=CC(=O)N1CCC[C@@H](Nc2nnc(C(N)=O)c(Nc3ccc(S(C)(=O)=O)cc3)n2)C1` [Example C-59, (R)-3-(1-acryloylpiperidin-3-ylamino)-5-(4-(methylsulfonyl)phenyl-amino)-1,2,4-triazine-6-carboxamide]: the IC50 against ITK, on TEC, at TXK, on EGFR and at BTK-WT was no more than 10 nM each time.

Take `C=CC(=O)N1CCC[C@@H](Nc2nnc(C(N)=O)c(Nc3ccc(-c4nccs4)cc3)n2)C1` [Example C-77, (R)-3-(1-acryloylpiperidin-3-ylamino)-5-(4-(thiazol-2-yl)phenylamino)-1,2,4-triazine-6-carboxamide]: the 50% inhibitory concentration (IC50) (in general, the concentration at which inhibition is half-maximal) at ITK was 10 to 100 nM; against TEC, no more than 10 nM; at TXK it was no more than 10 nM; against EGFR, no more than 10 nM; at BTK-WT it was no more than 10 nM.

`C=CC(=O)N1CCC[C@@H](Nc2nnc(C(N)=O)c(Nc3cccc(-n4nccn4)c3)n2)C1` [Example C-75, (R)-5-(3-(2H-1,2,3-triazol-2-yl)phenylamino)-3-(1-acryloylpiperidin-3-ylamino)-1,2,4-triazine-6-carboxamide]: the IC50 against ITK was 10 to 100 nM; against TEC, no more than 10 nM; on TXK, no more than 10 nM; against EGFR it was 10 to 100 nM; on BTK-WT, no more than 10 nM.

For the compound `C=CC(=O)N1CCC[C@@H](Nc2nnc(C(N)=O)c(Nc3ccc(C4(C#N)CCCC4)cc3)n2)C1` [Example C-58, (R)-3-(1-acryloylpiperidin-3-ylamino)-5-(4-(1-cyanocyclopentyl)phenylamino)-1,2,4-triazine-6-carboxamide], the IC50 on ITK, on TEC, against TXK, against EGFR and at BTK-WT was no more than 10 nM each time.

The values are drawn from patent US20210070748A1, “INHIBITORS OF BRUTONS TYROSINE KINASE” (Pharmacyclics LLC, priority 2015, published 2021).
